What all share (assay type): binding
One assay has as its target μ opioid receptor (Homo sapiens, UniProt P35372). Conditions: read-out: Ki (nM ± S.E.) [^3H]DAMGO (μ).
Another assay has as its target T1, κ opioid receptor (UniProt P41144).
T1 construct: rows headed: Ki (nM ± S.E.) [^3H]U69,593 (κ); other: radioligand [3H]U69,593

Assay [1] concerns the target T2, δ opioid receptor (UniProt A0A286XTF2). Further details: unit μM. The note with it: radioligand [3H]Naltrindole.
Description: (§1) The affinities of the compounds of the invention are determined by the method described in Wentland et al. [BioOrg.
For assay [2], the target named is T2, δ opioid receptor. Conditions: read-out: Ki (nM ± S.E.) [^3H]Naltrindole (δ); radioligand [3H]Naltrindole.
Description: as §1
The mark [3] stands for this setting: radioligand [3H]U69,593; read-out: Ki (nM ± S.E.) [^3H]U69,593 (κ).
[4] abbreviates: read-out: Ki (nM ± S.E.) [^3H]Naltrindole (δ).
Setting [5] is: read-out: Ki (nM ± S.E.) [^3H]U69,593 (κ); radioligand [3H]U69,593.

SMILES strings stand for the structures. Where two headings read alike, the source gives them in different places. Bounds are passed on as bounds.

One may read the Ki as a dissociation constant, usually derived from enzyme kinetics or from competition with a known ligand.

μ opioid receptor, sequence (P35372 whole entry): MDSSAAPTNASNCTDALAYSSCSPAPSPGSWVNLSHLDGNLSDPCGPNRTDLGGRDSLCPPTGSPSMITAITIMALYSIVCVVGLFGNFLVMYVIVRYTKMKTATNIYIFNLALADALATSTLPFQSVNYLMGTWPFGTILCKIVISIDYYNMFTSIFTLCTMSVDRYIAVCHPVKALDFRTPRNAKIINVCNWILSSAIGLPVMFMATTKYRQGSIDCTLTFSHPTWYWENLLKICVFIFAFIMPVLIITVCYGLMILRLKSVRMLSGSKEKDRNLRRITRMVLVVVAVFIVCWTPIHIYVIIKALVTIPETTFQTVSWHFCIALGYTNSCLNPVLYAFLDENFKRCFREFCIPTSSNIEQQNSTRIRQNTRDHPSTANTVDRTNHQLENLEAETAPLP
Description for κ opioid receptor: as §1
Description for μ opioid receptor: as §1

Regarding `NC(=O)c1ccc2c3c1O[C@H]1C(=O)CC[C@@]4(O)[C@@H](C2)N(CC2CC2)CC[C@]314` [Sample 2, 3-Carboxyamido-naltrexone], the results for the Ki on μ opioid receptor, on κ opioid receptor (setting [3]) and at δ opioid receptor [1] (setting [4]) were 1.9 ± 0.21 nM, 22 ± 0.85 nM and 110 ± 8.1 nM, respectively.

For the compound `NC(=O)c1ccc2c(c1O)[C@]13CCN(CC4CC4)[C@H](C2)[C@]1(O)CCC(=O)C3` [Sample 3, 3-Carboxyamido-4-hydroxy-naltrexone], the values for the Ki at μ opioid receptor, at κ opioid receptor (setting [3]) and at δ opioid receptor [1] (setting [4]) were 0.052 ± 0.004 nM, 0.23 ± 0.018 nM and 2.6 ± 0.26 nM, respectively.

For the compound `COc1ccc2c(c1O)[C@]13CCN(CC4CC4)[C@H](C2)[C@]1(O)CCC(=O)C3` [Sample 4, 3-methoxy-4-hydroxy-naltrexone], the Ki was 12 ± 0.29 nM at κ opioid receptor (setting [5]) and more than 10000 nM at δ opioid receptor [1] (read-out: Ki [^3H]Naltrindole (δ), unit μM).

Turning to `COc1ccc2c(c1O)[C@]13CCN(C)[C@H](C2)[C@@H]1C=CC(=O)C3` [Sample 7, 3-Methoxy-4-hydroxy-6-oxo-morphine], the values for the Ki on κ opioid receptor (setting [5]) and at δ opioid receptor [1] (setting [4]) were 740 ± 25 nM and 2000 ± 80 nM, respectively.

In the case of `COc1ccc2c(c1O)[C@]13CCN(C)[C@H](C2)[C@@H]1CCC(=O)C3` [Sample 8, 3-Methoxy-4-hydroxy-6-oxo-7,8-dihydro-morphine], the figures for the Ki at κ opioid receptor (setting [5]) and at δ opioid receptor [1] (setting [4]) were 350 ± 8.5 nM and 1200 ± 65 nM, respectively.

For the compound `NC(=O)c1ccc2c(c1O)[C@]13CCN(CC4CCC4)[C@H](C2)[C@]1(O)CCC(=O)C3` [Sample 21, 3-Carboxamido-4-hydroxy-6-oxo-nalbuphine], the Ki worked out at 4.2 ± 0.36 nM at δ opioid receptor [2] and 0.27 ± 0.013 nM on κ opioid receptor (setting [5]).

Regarding `NC(=S)c1ccc2c(c1O)[C@]13CCN(CC4CC4)[C@H](C2)[C@]1(O)CCC(=O)C3` [Sample 26, 3-Thiocarboxyamido-4-hydroxy-naltrexone], the Ki at κ opioid receptor (setting [5]) was found to be 5 ± 0.72 nM; on δ opioid receptor [1] (setting [4]) it was 140 ± 11 nM.

The values above are taken from patent publication US8802655B2, “4-hydroxybenzomorphans” (Rensselaer Polytechnic Institute, priority 2004, dated 2014).
